Experimental data as given in PubChem BioAssay AID248 (DTP/NCI, 2004).
Several values for one entry are separate records, joined by “and”; a condition that tells them apart may be missing. Identical values can stand only once. Inconclusive results and toxic doses are left out.

Test system: L1210 leukemia ip in BDF1 mice, survival T/C
Assay: NCI In Vivo Anticancer Drug Screen. Data for tumor model L1210 Leukemia (intraperitoneal) in B6D2F1 (BDF1) mice
Conditions: endpoint: mean survival time, higher = longer survival
Summary of the method: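 Each compound was tested against a transplantable tumor grown in mice. The endpoint was survival, with treated animals benchmarked against vehicle controls as a simple ratio.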

[1] = dose: 25.0 mg/kg/injection, schedule: Q01DX009 (ip), vehicle: saline
[2] = dose: 50.0 mg/kg/injection, schedule: Q01DX009 (ip), vehicle: saline
[3] = dose: 100.0 mg/kg/injection, schedule: Q01DX009 (ip), vehicle: saline
[4] = dose: 100.0 mg/kg/injection, schedule: Q04DX003 (ip), vehicle: saline with Tween-80
[5] = dose: 200.0 mg/kg/injection, schedule: Q01DX009 (ip), vehicle: saline
[6] = dose: 200.0 mg/kg/injection, schedule: Q04DX003 (ip), vehicle: saline with Tween-80
[7] = dose: 400.0 mg/kg/injection, schedule: Q04DX003 (ip), vehicle: saline with Tween-80
[8] = dose: 100.0 mg/kg/injection, schedule: Q01DX009 (ip), vehicle: Klucel (hydroxypropylcellulose) (HPC)
[9] = dose: 200.0 mg/kg/injection, schedule: Q01DX009 (ip), vehicle: Klucel (hydroxypropylcellulose) (HPC)
[10] = dose: 400.0 mg/kg/injection, schedule: Q01DX009 (ip), vehicle: Klucel (hydroxypropylcellulose) (HPC)
[11] = dose: 100.0 mg/kg/injection, schedule: Q01DX001 (ip), vehicle: saline
[12] = dose: 200.0 mg/kg/injection, schedule: Q01DX001 (ip), vehicle: saline
[13] = dose: 100.0 mg/kg/injection, schedule: Q04DX003 (ip), vehicle: Klucel (hydroxypropylcellulose) (HPC)
[14] = dose: 200.0 mg/kg/injection, schedule: Q04DX003 (ip), vehicle: Klucel (hydroxypropylcellulose) (HPC)
[15] = dose: 400.0 mg/kg/injection, schedule: Q04DX003 (ip), vehicle: Klucel (hydroxypropylcellulose) (HPC)
[16] = dose: 100.0 mg/kg/injection, schedule: Q01DX009 (ip), vehicle: saline with Tween-80
[17] = dose: 200.0 mg/kg/injection, schedule: Q01DX009 (ip), vehicle: saline with Tween-80
[18] = dose: 400.0 mg/kg/injection, schedule: Q01DX009 (ip), vehicle: saline with Tween-80
[19] = dose: 75.0 mg/kg/injection, schedule: Q01DX001 (ip), vehicle: saline
[20] = dose: 100.0 mg/kg/injection, schedule: Q01DX001 (ip), vehicle: saline with Tween-80
[21] = dose: 200.0 mg/kg/injection, schedule: Q01DX001 (ip), vehicle: saline with Tween-80
[22] = dose: 400.0 mg/kg/injection, schedule: Q01DX001 (ip), vehicle: saline with Tween-80

Cc1ccnc(NS(=O)(=O)c2ccc(N=Nc3nc4[nH]c(N)nc(=S)c4[nH]3)cc2)n1
T/C (dose: 1.56 mg/kg/injection, schedule: Q01DX009 (ip), vehicle: Klucel (hydroxypropylcellulose) (HPC)): 230 % of control | T/C (dose: 12.5 mg/kg/injection, schedule: Q01DX009 (ip), vehicle: Klucel (hydroxypropylcellulose) (HPC)): 94 % of control and 108 % of control | T/C (dose: 25.0 mg/kg/injection, schedule: Q04DX003 (ip), vehicle: Klucel (hydroxypropylcellulose) (HPC)): 162 % of control and 180 % of control | T/C (dose: 50.0 mg/kg/injection, schedule: Q04DX003 (ip), vehicle: Klucel (hydroxypropylcellulose) (HPC)): 173 % of control and 182 % of control and 192 % of control

CC1CC(C)(C)N=C(CCC2CCCCCC2=O)O1 (stereo unspecified)
T/C [1]: 98 % of control | T/C [2]: 102 % of control | T/C (dose: 50.0 mg/kg/injection, schedule: Q04DX003 (ip), vehicle: saline with Tween-80): 96 % of control | T/C [3]: 100 % of control | T/C [4]: 93 % of control | T/C [5]: 101 % of control | T/C [6]: 96 % of control

O=C(O)c1cccc([N+](=O)[O-])c1C(=O)c1ccccc1
T/C [4]: 95 % of control | T/C [6]: 97 % of control | T/C [7]: 93 % of control

COC(=O)C1C(O)C(C)C(=O)C(C)/C=C\C=C(C)C(=O)Nc2c(C)c(OC(C)=O)c3c(c2O)C(=O)C(C)=C2OCOC(=C23)C(C)=CC(C)(O)C(O)C(C)C1O (stereo unspecified)
T/C [1]: 96 % of control | T/C [2]: 98 % of control | T/C [3]: 96 % of control | T/C [5]: 98 % of control

COc1cc(Cl)ccc1NC(=O)Oc1ccc(F)cc1Cl
T/C [8]: 104 % of control | T/C [9]: 108 % of control | T/C [10]: 106 % of control

CCCCOC(=O)C(C(=O)OCCCC)(C(=O)OCCCC)C(C(=O)OCCCC)(C(=O)OCCCC)C(=O)OCCCC
T/C (dose: 50.0 mg/kg/injection, schedule: Q01DX001 (ip), vehicle: saline): 101 % of control | T/C [11]: 111 % of control | T/C [12]: 104 % of control

CCCCCCCN=C(N)c1ccc(C(=O)OCc2ccccc2)cc1
T/C [11]: 94 % of control | T/C [12]: 90 % of control

CNC(=O)OCC1=CC(=O)C=CC1=O
T/C (dose: 6.25 mg/kg/injection, schedule: Q04DX003 (ip), vehicle: Klucel (hydroxypropylcellulose) (HPC)): 92 % of control | T/C (dose: 12.5 mg/kg/injection, schedule: Q01DX001 (ip), vehicle: Klucel (hydroxypropylcellulose) (HPC)): 93 % of control | T/C (dose: 12.5 mg/kg/injection, schedule: Q04DX003 (ip), vehicle: Klucel (hydroxypropylcellulose) (HPC)): 94 % of control | T/C (dose: 25.0 mg/kg/injection, schedule: Q01DX001 (ip), vehicle: Klucel (hydroxypropylcellulose) (HPC)): 96 % of control

CCCSP(=[Se])(CCC)c1ccccc1 (stereo unspecified)
T/C (dose: 25.0 mg/kg/injection, schedule: Q04DX002 (ip), vehicle: saline with Tween-80): 97 % of control | T/C (dose: 50.0 mg/kg/injection, schedule: Q04DX002 (ip), vehicle: saline with Tween-80): 97 % of control | T/C (dose: 100.0 mg/kg/injection, schedule: Q04DX002 (ip), vehicle: saline with Tween-80): 101 % of control

C[Si](C)(C)N1N=NC2C(=O)N(c3ccccc3)C(=O)C21 (stereo unspecified)
T/C [8]: 105 % of control | T/C [13]: 92 % of control | T/C [9]: 110 % of control | T/C [14]: 102 % of control | T/C [10]: 112 % of control | T/C [15]: 103 % of control

COc1cc(C(=O)Nc2ccccc2F)cc(OC)c1OC
T/C [8]: 92 % of control | T/C [9]: 94 % of control | T/C [10]: 97 % of control

CC(CP(=O)(c1ccccc1)c1ccccc1)C(=O)O (stereo unspecified)
T/C [16]: 98 % of control | T/C [17]: 97 % of control | T/C [18]: 98 % of control

CCCCC1CCCCC1
T/C [16]: 106 % of control | T/C [17]: 98 % of control | T/C [18]: 96 % of control

Oc1ccc(CNCc2ccccc2)c2cccnc12
T/C [19]: 115 % of control

Cc1nc(N)[nH]c(=O)c1NC(=O)CBr
T/C (dose: 50.0 mg/kg/injection, schedule: Q01DX001 (ip), vehicle: Klucel (hydroxypropylcellulose) (HPC)): 100 % of control | T/C (dose: 100.0 mg/kg/injection, schedule: Q01DX001 (ip), vehicle: Klucel (hydroxypropylcellulose) (HPC)): 104 % of control

N#CC(c1ccccc1)C(c1ccccc1)C(C(=O)c1ccccc1)c1ccccc1 (stereo unspecified)
T/C [16]: 100 % of control | T/C [17]: 93 % of control | T/C [18]: 90 % of control

CN(CC1CCCCC1=O)CC1CCCCC1=O (stereo unspecified)
T/C (dose: 100.0 mg/kg/injection, schedule: Q01DX001 (ip), vehicle: steriod suspending solution): 97 % of control | T/C (dose: 200.0 mg/kg/injection, schedule: Q01DX001 (ip), vehicle: steriod suspending solution): 104 % of control | T/C (dose: 400.0 mg/kg/injection, schedule: Q01DX001 (ip), vehicle: steriod suspending solution): 106 % of control

O=C(NC1CC2c3ccccc3C1c1ccccc12)NC1CC2c3ccccc3C1c1ccccc12 (stereo unspecified)
T/C [13]: 94 % of control | T/C [14]: 89 % of control | T/C [15]: 98 % of control

O=[N+]([O-])c1ccc(C(Br)Br)cc1
T/C [13]: 93 % of control | T/C [14]: 93 % of control

OCCc1cc2ccccc2s1
T/C [13]: 107 % of control | T/C [14]: 103 % of control | T/C [15]: 113 % of control

Nc1n[nH]c2cc(=O)[nH]c(O)c12
T/C [19]: 98 % of control | T/C (dose: 150.0 mg/kg/injection, schedule: Q01DX001 (ip), vehicle: saline): 93 % of control | T/C (dose: 300.0 mg/kg/injection, schedule: Q01DX001 (ip), vehicle: saline): 94 % of control

CN1C(=O)CSC1=S
T/C (dose: 25.0 mg/kg/injection, schedule: Q01DX009 (ip), vehicle: Klucel (hydroxypropylcellulose) (HPC)): 90 % of control | T/C (dose: 50.0 mg/kg/injection, schedule: Q01DX009 (ip), vehicle: Klucel (hydroxypropylcellulose) (HPC)): 87 % of control | T/C [8]: 93 % of control

CCOC(=O)NC(CCl)NC(=O)OCC
T/C [11]: 95 % of control | T/C [12]: 101 % of control | T/C (dose: 400.0 mg/kg/injection, schedule: Q01DX001 (ip), vehicle: saline): 103 % of control

Oc1ccccc1C1=NCCN1
T/C (dose: 50.0 mg/kg/injection, schedule: Q04DX002 (ip), vehicle: Klucel (hydroxypropylcellulose) (HPC)): 102 % of control | T/C (dose: 100.0 mg/kg/injection, schedule: Q04DX002 (ip), vehicle: Klucel (hydroxypropylcellulose) (HPC)): 95 % of control | T/C (dose: 200.0 mg/kg/injection, schedule: Q04DX002 (ip), vehicle: Klucel (hydroxypropylcellulose) (HPC)): 91 % of control

CCc1cccc(CC)c1N(C(C)=O)C(C)=O
T/C [16]: 98 % of control | T/C [17]: 104 % of control | T/C [18]: 102 % of control

CCC[N+]12CC=C3COC(=O)C(C)(O)C(C)(O)C(C)C(=O)OC(CC1)C32 (stereo unspecified)
T/C [2]: 92 % of control | T/C [3]: 95 % of control | T/C [5]: 95 % of control

CN(C)CCNc1ccc([N+](=O)[O-])c2sc3ccccc3c(=O)c12
T/C (dose: 5.3 mg/kg/injection, schedule: Q01DX Z (ip), vehicle: methylcellulose (MC)): 94 % of control and 98 % of control | T/C (dose: 8.0 mg/kg/injection, schedule: Q01DX Z (ip), vehicle: carboxymethylcellulose (CMC)): 102 % of control | T/C (dose: 8.0 mg/kg/injection, schedule: Q01DX Z (ip), vehicle: methylcellulose (MC)): 98 % of control and 106 % of control | T/C (dose: 12.0 mg/kg/injection, schedule: Q01DX Z (ip), vehicle: carboxymethylcellulose (CMC)): 118 % of control | T/C (dose: 26.0 mg/kg/injection, schedule: Q01DX Z (ip), vehicle: carboxymethylcellulose (CMC)): 152 % of control | T/C (dose: 27.0 mg/kg/injection, schedule: Q01DX Z (ip), vehicle: carboxymethylcellulose (CMC)): 156 % of control | T/C (dose: 27.0 mg/kg/injection, schedule: Q01DX Z (ip), vehicle: methylcellulose (MC)): 98 % of control and 156 % of control and 216 % of control | T/C (dose: 40.0 mg/kg/injection, schedule: Q01DX Z (ip), vehicle: carboxymethylcellulose (CMC)): 172 % of control | T/C (dose: 40.0 mg/kg/injection, schedule: Q01DX Z (ip), vehicle: methylcellulose (MC)): 111 % of control

CC(CO)CCCC(C)C1CCC2C3CCC4CC(O)CCC4(C)C3CCC12C (stereo unspecified)
T/C [20]: 95 % of control | T/C [21]: 87 % of control | T/C [22]: 90 % of control

CNC(=O)NCc1ccc(Cl)cc1
T/C [4]: 105 % of control | T/C [6]: 98 % of control | T/C [7]: 107 % of control

CN(C)c1nnc(-c2ccc(Cl)cc2)nn1
T/C [20]: 96 % of control | T/C [21]: 92 % of control | T/C [22]: 88 % of control
